Earlier results in patent US20220370529A1, “CANNABIS COMPOSITIONS AND RELATED METHODS” (Access Business Group International LLC, priority 2021, published 2022).

Assays:
[1] = system: human keratinocytes (HaCaT cells); conditions: of 26 genes upregulated by TNF-α treatment
[2] = system: human dermal fibroblast (HDF); conditions: HDF cells
[3] = with rapid metabolism or redistribution

| SMILES | partition coefficient (log P) | inflammatory related genes downregulated [1] | inhibitory effects on genes playing a role in inflammation and matrix remodeling, including IL-6 and MMP-9 ([2]; TNF-α treatment) | wound healing genes downregulated ([2]; of 16 genes upregulated by TNF-α treatment) | human pulmonary uptake [3] |
| --- | --- | --- | --- | --- | --- |
| C=C(C)[C@@H]1CCC(C)=C[C@H]1c1c(O)cc(CCCCC)cc1O [CBD, cannabidiol] | ~6.3 | 15 genes | did not exhibit any inhibitory effects | 11 genes | – |
| CC1=CC[C@H]2C[C@@H]1C2(C)C [α-Pinene, α-pinene] | – | – | – | – | ~60% |
